These results are taken from US20170281710A1, “USE OF INHIBITORS OF BINDING BETWEEN A PAR-1 RECEPTOR AND ITS LIGANDS FOR THE TREATMENT OF GLIOMA” (University of Rochester, priority 2013, published 2017).

The subject of data set [1] is normal astrocytes derived from the fetal human brain. The data set can be described thus: growth of normal fetal astrocytes in vitro. The format is cell-based. The note with it: for effect on growth of normal fetal astrocytes / concentrations at which growth of normal fetal astrocytes is slightly decreased: 4 days after administration.
The test system of data set [2] is several human and mouse cell lines. The note with it: literature; cited from earlier work.
Data set [3] has as its system adherent glioma cells (U87, U251). The data set can be described thus: in vitro expansion of adherent glioma cells cultured with 10% serum. The data set is classed as cell-based, human. Particulars: for effect on growth / number of adherent glioma cells (U87, U251): 4 days after administration, vs DMSO vehicle; for concentration at which a significant decrease in number of adherent glioma cells was observed: escalating doses. On the procedure:
(§1) Dabigatran etexilate (Pradaxa) was obtained as 150 mg capsules from Boehringer Ingelheim (Ingelheim, Germany) for in vivo experiments. Each capsule was freshly dissolved in 4 ml of acidic water to yield 37.5 mg/ml. Dabigatran etexilate was dosed depending of the body weight of the mouse, twice a day, using oral gavage. For in vitro analysis, the chemical compound dabigatran etexilate (BIER-1048) was purchased from Cedarlane USA (S2154-5 mg) and dissolved in dimethylsulfoxide (DMSO) following manufacturer's instructions.
(§2) The selective PAR-1 antagonist SCH79797 was purchased from Tocris Bioscience (Ellisville, Mo., USA) and dissolved in dimethylsulfoxide (DMSO) following manufacturer's instructions. The selective oral PAR-1 inhibitor SCH 530348 (Vorapaxar) was purchased from Axon medchem (Axon 1755) and reconstituted following manufacturer's instructions.
(§3) The various physiological and pathophysiological effects exerted by PAR-1 activation have led to the development of multiple selective PAR-1 antagonists over the years (Garcia-Lopez et al., “Thrombin-Activated Receptors: Promising Targets for Cancer Therapy?” Curr Med Chem 17:109-128 (2010), which is hereby incorporated by reference in its entirety). […] On that basis, it was further asked whether pharmacological inhibition of PAR-1 can slow the growth of glioma cells and A2B5^+ TPCs. Adherent glioma cells grown in 10% Serum (U87, U251) and A2B5^+ TPCs derived from primary GBM cell lines cultured in SFM were subjected to escalating doses of the PAR-1 antagonists SCH-79797.
(§4) Indeed, SCH-530348 represents currently the most advanced and orally available specific PAR-1 antagonist, and has been evaluated in two large phase III clinical trials in patients with cardiovascular disease. […] To examine its effect on glioma cells and TPCs, SCH-530348 was administrated with escalating doses to glioma cells following the same paradigm previously described. […] Importantly, normal adult astrocytes were not affected by SCH-530348 administration (FIG. 6C).
(§5) Given the availability of already approved and relatively safe drugs by which the thrombin may be antagonized, the effect of pharmacological inhibition of thrombin using the oral inhibitor dabigatran etexilate (dabigatran) in vitro was next examined. Dabigatran (marketed as Pradaxa) is an oral inhibitor of thrombin, approved for use in patients with or at risk of thrombotic disorders (Lee and Ansell, “Direct Thrombin Inhibitors,” Br J Clin Pharmacol 72:581-592 (2011); Stangier, “Clinical Pharmacokinetics and Pharmacodynamics of the Oral Direct Thrombin Inhibitor Dabigatran Etexilate,” Clin Pharmacokinet 47:285-295 (2008), which are hereby incorporated by reference in their entirety). […] To examine whether dabigatran treatment might suppress the growth of glial neoplasms, glioma cells and TPCs were treated with escalating doses of dabigatran and counted 4 days after drug administration.

For data set [4], the system named is A2B5+ glioma TPCs (GCL) isolated from GBM-derived cell lines. The data set can be described thus: in vitro expansion of A2B5+ glioma TPCs (GCL), cell count after escalating doses. The format is cell-based, human. The note with it: for concentration at which a significant decrease in number of A2B5+ TPCs was observed: escalating doses, vs vehicle; for effect on growth / number (in vitro expansion) of A2B5+ glioma TPCs: serum-free media with FGF, EGF, PDGF, 4 days after administration, vs DMSO vehicle. How it is done: After dissociation, unsorted and A2B5 selected primary cells derived from tumor samples were seeded in a 6 well cell suspension plate at 100,000-200,000 cells/ml in DMEM/F12/N1 media containing FGF, EGF and PDGF (20 ng/ml) as previously described (Nunes et al., “Identification and Isolation of Multipotential Neural Progenitor Cells from the Subcortical White Matter of the Adult Human Brain,” Nat Med 9:439-447 (2003), which is hereby incorporated by reference in their entirety). Growth factors and media were renewed 3 times per week. […] The cells were tumorigenic in vivo after transplantation into the brains of immunodeficient mice, in which they generated tumors that recapitulated the histological and phenotypic features of the parental GBM.
as §1, §2, §3, §4, §5

The subject of data set [5] is normal astrocytes derived from the adult human brain. The data set is described as follows: growth of normal adult astrocytes in vitro. The format is cell-based. Particulars: 4 days after administration.
The next data set relates to angiogenesis. The note with it: literature; cited from earlier work.
The conditions of data set [6]: literature; cited from earlier work.
The conditions of data set [7]: stable patients with a history of myocardial infarction; literature; cited from earlier work.
The subject of the next data set is breast carcinoma cells. The note with it: literature; cited from earlier work.
For data set [8], the system named is A2B5+ glioma TPCs (GCL) subcutaneous xenograft. The data set is described as follows: subcutaneous heterotopic A2B5+ glioma TPC xenograft, tumor volume. The format is in vivo, immunodeficient NOG mice. Particulars: 37.5 mg/kg twice daily, oral gavage, starting 11 days post-subcutaneous injection, NOG mice. How it is done: as §1
Glioma cells and/or A2B5^+ TPCs (1-4E^+06 cells/animal) were collected, resuspended in 75 μl of media, and mixed (1:1) with Matrigel (9.8 mg/ml), prior to subcutaneous injection (150 μl, final volume) into the flanks of immunodeficient NOG mice (5-8 weeks) (1-4E^+06 cells/animal). Subcutaneous tumor growth was measured every other day morphometrically using vernier calipers, and tumor volumes were estimated according to the formula a^2b/2, where a and b are the shorter and longer diameters of the tumor, respectively. […] The remaining mice were gavaged at the same times with vehicle control (acidic water). […]
To translate these findings into a clinically relevant approach, the anti-tumor activity of dabigatran was further evaluated in vivo. […] Tumor volume was then measured every other day using vernier calipers. […]

Structures are written as SMILES. Entries after “also recorded” stand apart in the source; their conditions may differ.

In the case of `CC(C)c1ccc(Cn2ccc3c4c(N)nc(NC5CC5)nc4ccc32)cc1` [SCH79797, N3-Cyclopropyl-7-[[4-(1-Methylethyl)Phenyl]Methyl]-7H-Pyrrolo[3,2-f]Quinazoline-1,3-Diamine], the “effect on growth of normal fetal astrocytes” value is “did not affect the growth of normal fetal and adult astrocytes” in data set [1]; “able to slow the growth of normal fetal astrocytes” in data set [1] (listed as SCH-79797). The “concentration at which a significant decrease in number of fetal astrocytes was observed” value in data set [1] (escalating doses) is at least 0.5 µM. Besides, in data set [2], the “effect on proliferation, migration and growth of several human and mouse cell lines” value was “showed anti-proliferative effects, blocked cell migration and growth”. Further, the “effect on growth / number of adherent glioma cells (U87, U251)” value (shortened to “effect on growth / number … (U87, U251)”) was “significantly decreases the number of GCL and glioma cells in a dose dependent manner” in data set [3]; “significant concentration dependent inhibition of cell growth” in [3] (listed as SCH-79797). Further, the “concentration at which a significant decrease in number of adherent glioma cells was observed” value in [3] was at least 0.1 µM. Besides, the “concentration at which a significant decrease in number of A2B5+ TPCs was observed” value in [4] is at least 0.1 µM. For the same compound, the “effect on growth / number (in vitro expansion) of A2B5+ glioma TPCs” value in data set [4] was “potent inhibitors of glioma growth in vitro; also recorded: suppressed the growth and proliferation of glioma TPCs in vitro; also recorded: significantly decreases the number of GCL and glioma cells in a dose dependent manner”; in data set [4] (listed as SCH-79797), “significant concentration dependent inhibition of cell growth”. In addition, the “effect on growth of normal adult astrocytes” value in data set [5] is “did not affect the growth of normal fetal and adult astrocytes”; in data set [5] (listed as SCH-79797) it was “no significant differences”. Also, the “anti-angiogenic activity in vivo” value in the data set with angiogenesis was “potent anti-angiogenic in vivo”.

`CCOC(=O)N[C@@H]1CC[C@@H]2[C@@H](C1)C[C@H]1C(=O)O[C@H](C)[C@H]1[C@H]2/C=C/c1ccc(-c2cccc(F)c2)cn1` [SCH530348, Vorapaxar]: in [1], the “concentrations at which growth of normal fetal astrocytes is slightly decreased” value is over 0.5 µM and the “effect on growth of normal fetal astrocytes” value was “slightly decreases the growth of normal fetal astrocytes”. Also, in data set [6], the oral bioavailability entry is given as “excellent” and the safety result was “excellent”. In [3], the “effect on growth / number … (U87, U251)” value is “significantly decreases the number of GCL and glioma cells in a dose dependent manner”; the “concentration at which a significant decrease in number of adherent glioma cells was observed” value was found to be 25 µM. The “effect on growth / number … (U87, U251)” value in data set [3] (listed as SCH-530348) was “significant decrease in the number of glioma cells”. For the same compound, in data set [4], the “concentration at which a significant decrease in number of A2B5+ TPCs was observed” value is at least 5 µM; the “effect on growth / number (in vitro expansion) of A2B5+ glioma TPCs” value is “potent inhibitors of glioma growth in vitro; also recorded: suppressed the growth and proliferation of glioma TPCs in vitro; also recorded: significantly decreases the number of GCL and glioma cells in a dose dependent manner”. The “effect on growth / number (in vitro expansion) of A2B5+ glioma TPCs” value in data set [4] (listed as SCH-530348) is reported as “significantly reduced the growth”. Besides, in [5], the “effect on growth of normal adult astrocytes” value is on record as “did not affect the growth of normal adult astrocytes”. Further, the “effect on growth of normal adult astrocytes” value in data set [5] (listed as SCH-530348) is “not affected”. For the same compound, the “major cardiovascular thrombotic events” value in [7] is recorded as “significantly reduced major cardiovascular thrombotic events”.

For `CCCCCCOC(=O)NC(=N)c1ccc(NCc2nc3cc(C(=O)N(CCC(=O)OCC)c4ccccn4)ccc3n2C)cc1` [dabigatran etexilate], the “concentrations at which growth of normal fetal astrocytes is slightly decreased” value in [1] was over 0.5 µM. Moreover, the “effect on growth of normal fetal astrocytes” value is “slightly decreases the growth of normal fetal astrocytes” in data set [1] (listed as Dabigatran etexilate) and “not significantly affected” in [1] (listed as dabigatran). Moreover, the “effect on growth / number … (U87, U251)” value in data set [3] (listed as Dabigatran etexilate) is “significantly decreases the number of GCL and glioma cells in a dose dependent manner”; in data set [3] (listed as dabigatran), “decreased in vitro expansion in a dose dependent manner”. In data set [3], the “concentration at which a significant decrease in number of adherent glioma cells was observed” value was at least 10 µM. In addition, the breast cancer progression result in the data set with breast carcinoma cells is recorded as “reduce breast cancer progression”. Further, the “invasiveness of breast carcinoma cells in mice” value in the data set on breast carcinoma cells was “inhibits the invasiveness of breast carcinoma cells”. For the same compound, the “concentration at which a significant decrease in number of A2B5+ TPCs was observed” value in [4] worked out at 5 µM. For the same compound, the “effect on growth / number (in vitro expansion) of A2B5+ glioma TPCs” value is “suppressed the growth and proliferation of glioma TPCs in vitro” in [4]; “significantly decreases the number of GCL and glioma cells in a dose dependent manner” in data set [4] (listed as Dabigatran etexilate); “decreased in vitro expansion in a dose dependent manner; also recorded: potent inhibitors of glioma growth in vitro” in data set [4] (listed as dabigatran). The “effect on growth of normal adult astrocytes” value in data set [5] (listed as Dabigatran etexilate) was “did not affect the growth of normal adult astrocytes”; in data set [5] (listed as dabigatran), “not significantly affected”. Besides, the “effect on tumor volumes compared to vehicle controls” value in [8] is reported as “significant reduction in tumor volumes; also recorded: significantly suppressed glioma growth; also recorded: significantly reduced tumor volumes”; in [8] (listed as Pradaxa), “significantly reduce the tumor volumes”.
